Data published in patent US20230277630A1, “METHODS AND COMPOSITIONS FOR TREATING AMYOTROPHIC LATERAL SCLEROSIS” (Amylyx Pharmaceuticals, Inc., priority 2022, published 2023).
Several values for one entry are separate records, joined by “and”; a condition that tells them apart may be missing. Equal entries are not always repeated.

Tests used:
[1] = target: P-gp (Homo sapiens, UniProt P08183); assay: P-gp IC50 assessment, bidirectional digoxin transport in MDR1-MDCK cells
[2] = Non-specific binding assessment, uptake transporter format (cell-free poly-D-lysine plates); type: in vitro ADME; conditions: cell-free poly-D-lysine-coated 24-well plates, without BSA pre-incubation, both matrices
Method: Two treatments (three wells each) were included: in the first treatment, the wells were pre-incubated for 5 minutes with HBSSg_7.4_BSA or HBSSg_8.5_BSA; in the second treatment, no pre-incubation was performed (Table 32). After the pre-incubation, the solution was aspirated, and dosing solution (500 μL) was added to each well. […] After the incubation, aliquots (200 μL) were withdrawn from each chamber, combined with an equal volume of acetonitrile containing IS, and stored at 4° C. until analysis.

[3] = target: MATE2K (Homo sapiens, UniProt Q86VL8)
Sequence of MATE2K (Q86VL8 1-566 isoform Q86VL8-3): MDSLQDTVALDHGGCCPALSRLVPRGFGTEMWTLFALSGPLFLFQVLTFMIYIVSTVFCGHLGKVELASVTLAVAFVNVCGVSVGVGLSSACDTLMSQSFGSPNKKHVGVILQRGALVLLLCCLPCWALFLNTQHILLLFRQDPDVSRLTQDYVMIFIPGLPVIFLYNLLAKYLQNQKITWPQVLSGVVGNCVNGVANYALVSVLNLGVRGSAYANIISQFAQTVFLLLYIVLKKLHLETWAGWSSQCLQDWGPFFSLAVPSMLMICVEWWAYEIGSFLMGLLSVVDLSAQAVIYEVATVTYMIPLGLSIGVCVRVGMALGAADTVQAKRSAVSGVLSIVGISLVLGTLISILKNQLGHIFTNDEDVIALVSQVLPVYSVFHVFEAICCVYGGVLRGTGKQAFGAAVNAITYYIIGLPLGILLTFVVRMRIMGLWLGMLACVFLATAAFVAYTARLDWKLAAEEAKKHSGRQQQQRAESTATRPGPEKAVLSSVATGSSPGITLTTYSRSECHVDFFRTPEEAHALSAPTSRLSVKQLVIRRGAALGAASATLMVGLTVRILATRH

[4] = Human Plasma Protein Binding; type: in vitro ADME
[5] = Relevant concentrations of TUDCA and PB for in vitro transporter assessment ([I]1, [I]2, Iin,max); conditions: for Plasma Cmax (total [I]1): component of AMX0035; for [I]2: estimated, highest oral dose TUDCA 1000 mg, PB 3000 mg; for Unbound Cmax (Unbound [I]1) / Unbound [I]in, max: projected
[6] = target: T1, human liver microsomes (HLM) (Homo sapiens, UniProt P33261); assay: CYP reaction phenotyping using HLM and chemical inhibitors (% remaining); type: in vitro ADME
T1 construct: from tissue; host or cells: pooled human liver microsomes
T1 sequence (P33261 whole entry): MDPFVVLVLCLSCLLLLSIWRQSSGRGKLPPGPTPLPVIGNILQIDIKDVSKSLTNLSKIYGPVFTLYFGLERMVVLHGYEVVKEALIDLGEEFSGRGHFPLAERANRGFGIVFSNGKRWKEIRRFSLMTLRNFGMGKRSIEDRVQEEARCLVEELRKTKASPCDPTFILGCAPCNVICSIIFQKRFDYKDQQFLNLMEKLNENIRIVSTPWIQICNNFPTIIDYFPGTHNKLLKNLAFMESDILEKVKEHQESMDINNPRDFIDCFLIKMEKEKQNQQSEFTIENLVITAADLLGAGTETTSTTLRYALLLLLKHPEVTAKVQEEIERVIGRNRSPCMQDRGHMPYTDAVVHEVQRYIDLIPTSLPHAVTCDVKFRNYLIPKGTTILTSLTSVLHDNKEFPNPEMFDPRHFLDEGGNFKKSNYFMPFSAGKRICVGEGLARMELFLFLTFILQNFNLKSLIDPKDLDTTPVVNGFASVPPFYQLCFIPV
Description: (§1) % Remaining of TA=100×At/A0
(§2) Where, At and A0 are the peak area ratio of TA to IS at time t and at time zero, respectively.

[7] = test system: human liver microsomes (HLM); assay: as above; type: in vitro ADME; conditions: human, microsomes, 5 μM, pH 7.4
Description: as §1, §2

[8] = target: T2, human liver microsomes (HLM) (Homo sapiens, UniProt P11712); assay: as above; type: in vitro ADME; conditions: human, microsomes, 5 μM, pH 7.4
T2 construct: from tissue; host or cells: pooled human liver microsomes
T2 sequence (P11712 whole entry): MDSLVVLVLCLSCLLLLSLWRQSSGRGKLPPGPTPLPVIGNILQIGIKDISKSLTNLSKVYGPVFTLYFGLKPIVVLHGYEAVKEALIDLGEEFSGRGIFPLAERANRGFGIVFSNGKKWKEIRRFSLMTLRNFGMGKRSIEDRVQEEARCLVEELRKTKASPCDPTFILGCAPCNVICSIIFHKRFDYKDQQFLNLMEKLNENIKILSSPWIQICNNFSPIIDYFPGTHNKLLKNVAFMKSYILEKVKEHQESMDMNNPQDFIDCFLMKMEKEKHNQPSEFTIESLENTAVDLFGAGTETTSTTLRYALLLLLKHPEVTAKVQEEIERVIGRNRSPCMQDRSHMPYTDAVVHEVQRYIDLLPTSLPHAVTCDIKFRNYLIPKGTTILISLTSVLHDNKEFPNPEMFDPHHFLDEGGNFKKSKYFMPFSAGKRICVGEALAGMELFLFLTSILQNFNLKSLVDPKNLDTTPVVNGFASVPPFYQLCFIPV
Description: as §1, §2

[9] = target: T3, human liver microsomes (HLM) (Homo sapiens, UniProt P10635); assay: as above; type: in vitro ADME; conditions: human, microsomes, 5 μM, pH 7.4
T3 construct: from tissue; host or cells: pooled human liver microsomes
T3 sequence (P10635 whole entry): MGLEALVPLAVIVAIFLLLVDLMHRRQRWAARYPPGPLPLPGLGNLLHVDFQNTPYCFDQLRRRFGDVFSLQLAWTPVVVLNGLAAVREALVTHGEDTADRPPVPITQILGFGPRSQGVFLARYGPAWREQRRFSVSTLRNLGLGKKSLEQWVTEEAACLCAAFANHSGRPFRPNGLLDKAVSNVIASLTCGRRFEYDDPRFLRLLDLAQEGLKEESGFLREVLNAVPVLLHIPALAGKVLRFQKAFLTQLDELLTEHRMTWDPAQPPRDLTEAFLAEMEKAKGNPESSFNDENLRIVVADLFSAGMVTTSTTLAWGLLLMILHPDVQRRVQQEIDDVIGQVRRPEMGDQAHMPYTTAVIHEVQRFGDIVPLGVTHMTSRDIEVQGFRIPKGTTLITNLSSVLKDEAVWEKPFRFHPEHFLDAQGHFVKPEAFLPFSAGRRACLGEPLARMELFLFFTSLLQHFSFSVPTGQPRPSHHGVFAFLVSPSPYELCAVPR
Description: as §1, §2

[10] = target: T4, human liver microsomes (HLM) (Homo sapiens, UniProt P05177); assay: as above; type: in vitro ADME; conditions: human, microsomes, 5 μM, pH 7.4
T4 construct: from tissue; host or cells: pooled human liver microsomes
T4 sequence (P05177 1-516): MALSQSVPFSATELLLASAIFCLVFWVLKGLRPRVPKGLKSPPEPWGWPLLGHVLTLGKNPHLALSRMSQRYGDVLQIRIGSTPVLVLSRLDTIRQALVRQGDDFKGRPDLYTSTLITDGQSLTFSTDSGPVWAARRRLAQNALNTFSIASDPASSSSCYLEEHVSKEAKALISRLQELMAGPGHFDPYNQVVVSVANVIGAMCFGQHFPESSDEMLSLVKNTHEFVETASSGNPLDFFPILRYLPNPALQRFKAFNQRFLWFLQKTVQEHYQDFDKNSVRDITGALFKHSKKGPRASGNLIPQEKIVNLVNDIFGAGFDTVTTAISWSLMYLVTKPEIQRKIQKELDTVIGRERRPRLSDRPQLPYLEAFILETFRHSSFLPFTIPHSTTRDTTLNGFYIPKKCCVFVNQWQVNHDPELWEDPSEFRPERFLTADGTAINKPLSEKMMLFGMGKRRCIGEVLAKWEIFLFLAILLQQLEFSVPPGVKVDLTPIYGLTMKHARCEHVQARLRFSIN
Description: as §1, §2

[11] = Non-specific binding assessment, efflux transporter format (cell-free Transwell plates); type: in vitro ADME; conditions: pH 7.4, all three replicates
Description: Triplicate wells were used for the assay (Table 31). The samples were withdrawn at pre-selected time points from the receiver and donor compartments and mixed with an equal volume of acetonitrile containing IS.

[12] = Solubility assessment in HBSSg_7.4 and HBSSg_8.5; conditions: for solubility: 37 °C, thermodynamic from solid; for Measured Concentration / Percent of the Nominal Concentration: replicates 1-3; for Measured Concentration: incubated overnight
[13] = target: T5, OATP1B3 (Homo sapiens, UniProt Q9NPD5)
T5 sequence (Q9NPD5 1-702): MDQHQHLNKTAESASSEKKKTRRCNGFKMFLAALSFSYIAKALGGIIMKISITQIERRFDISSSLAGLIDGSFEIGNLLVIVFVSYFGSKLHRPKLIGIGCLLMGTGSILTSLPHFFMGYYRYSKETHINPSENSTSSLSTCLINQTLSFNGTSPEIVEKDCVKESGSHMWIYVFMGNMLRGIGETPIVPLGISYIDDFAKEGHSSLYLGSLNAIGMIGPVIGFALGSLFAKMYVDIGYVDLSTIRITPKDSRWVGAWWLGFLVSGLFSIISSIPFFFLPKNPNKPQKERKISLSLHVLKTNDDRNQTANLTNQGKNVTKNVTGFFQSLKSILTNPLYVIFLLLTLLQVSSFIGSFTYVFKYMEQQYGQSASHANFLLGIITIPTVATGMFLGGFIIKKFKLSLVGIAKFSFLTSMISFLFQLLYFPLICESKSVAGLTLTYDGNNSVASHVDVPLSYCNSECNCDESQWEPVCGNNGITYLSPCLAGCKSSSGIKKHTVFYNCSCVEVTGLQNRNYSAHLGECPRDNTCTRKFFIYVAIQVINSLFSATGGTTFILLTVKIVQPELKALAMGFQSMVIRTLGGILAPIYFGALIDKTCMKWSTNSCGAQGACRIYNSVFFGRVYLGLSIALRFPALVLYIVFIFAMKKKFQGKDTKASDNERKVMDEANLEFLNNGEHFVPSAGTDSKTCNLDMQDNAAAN

[14] = human, microsomes, 0 h, 5 μM, pH 7.4
[15] = human, microsomes, 5 min, 5 μM, pH 7.4
[16] = human, microsomes, 20 min, 5 μM, pH 7.4
[17] = human, microsomes, 1 h, 5 μM, pH 7.4
[18] = HBSSg 7.4 buffer, pH 7.4, aqueous buffer
[19] = HBSSg 8.5 buffer, pH 8.5, aqueous buffer

Sequence of P-gp (P08183 whole entry): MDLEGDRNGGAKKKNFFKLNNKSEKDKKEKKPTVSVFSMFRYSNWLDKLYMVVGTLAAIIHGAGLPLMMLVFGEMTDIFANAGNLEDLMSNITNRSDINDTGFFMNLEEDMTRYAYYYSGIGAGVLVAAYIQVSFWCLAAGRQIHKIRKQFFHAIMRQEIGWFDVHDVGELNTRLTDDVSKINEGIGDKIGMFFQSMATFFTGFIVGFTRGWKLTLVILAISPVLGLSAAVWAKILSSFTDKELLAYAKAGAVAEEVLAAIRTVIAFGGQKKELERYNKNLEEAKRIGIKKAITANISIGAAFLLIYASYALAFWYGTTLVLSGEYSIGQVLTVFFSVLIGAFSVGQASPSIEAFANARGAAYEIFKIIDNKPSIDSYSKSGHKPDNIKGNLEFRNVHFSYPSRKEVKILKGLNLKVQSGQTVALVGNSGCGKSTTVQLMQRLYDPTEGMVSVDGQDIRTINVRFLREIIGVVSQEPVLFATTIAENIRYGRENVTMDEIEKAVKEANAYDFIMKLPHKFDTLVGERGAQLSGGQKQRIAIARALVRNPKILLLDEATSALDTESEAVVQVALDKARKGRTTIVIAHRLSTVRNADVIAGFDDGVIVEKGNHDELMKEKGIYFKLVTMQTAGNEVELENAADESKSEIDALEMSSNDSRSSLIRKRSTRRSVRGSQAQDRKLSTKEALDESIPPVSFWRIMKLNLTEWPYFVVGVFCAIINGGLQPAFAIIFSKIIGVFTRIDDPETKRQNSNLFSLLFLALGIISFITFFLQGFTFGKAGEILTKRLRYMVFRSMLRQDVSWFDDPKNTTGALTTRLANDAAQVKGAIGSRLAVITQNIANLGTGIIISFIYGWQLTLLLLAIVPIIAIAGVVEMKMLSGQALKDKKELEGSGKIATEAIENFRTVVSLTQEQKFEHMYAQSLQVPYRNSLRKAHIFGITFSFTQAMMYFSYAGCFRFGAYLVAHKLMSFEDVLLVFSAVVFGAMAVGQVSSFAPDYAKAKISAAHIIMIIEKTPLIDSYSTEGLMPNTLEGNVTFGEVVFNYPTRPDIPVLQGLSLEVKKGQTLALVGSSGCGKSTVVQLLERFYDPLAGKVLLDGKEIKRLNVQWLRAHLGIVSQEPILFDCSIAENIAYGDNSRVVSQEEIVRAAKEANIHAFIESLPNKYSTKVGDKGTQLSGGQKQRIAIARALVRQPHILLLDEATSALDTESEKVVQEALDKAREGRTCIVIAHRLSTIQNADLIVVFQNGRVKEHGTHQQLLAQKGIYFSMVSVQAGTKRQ

## C[C@H](CCC(=O)NCCS(=O)(=O)O)[C@H]1CC[C@H]2[C@@H]3[C@@H](O)C[C@@H]4C[C@H](O)CC[C@]4(C)[C@H]3CC[C@]12C [TUDCA, tauroursodeoxycholic acid]
[1]
  IC50: 0.889 to 2.67 mM
[2]
  recovery at 5 min: > 90%
[3]
  IC50: > 0.81 mM
[4]
  fraction unbound: 0.015
[5]; Table 28
  estimated [I]2: 8005 µM
  projected unbound Cmax: 1.62 µM
  unbound [I]1: 1.62 µM
[5]
  Plasma Cmax (total [I]1): 108 µM
  [I]2: 8005 µM
  Unbound Cmax (Unbound [I]1): 1.62 µM
  Unbound [I]in, max: 3.48 µM
[5]; oral administration, Table 28
  projected unbound Iin,max: 3.48 µM
[6]; [14]
  % Remaining of TA (n = 3) Average: 100%
[6]; [15]
  % Remaining of TA (n = 3) Average: 106%
[6]; human, microsomes, 10 min, 5 μM, pH 7.4
  % Remaining of TA (n = 3) Average: 93.0%
[6]; [16]
  % Remaining of TA (n = 3) Average: 93.1%
[6]; [17]
  % Remaining of TA (n = 3) Average: 94.5%
[6]; reversible incubation condition, CYP2C19 (+NADPH, +N3B), 30 min
  % Remaining of TA (n = 3) Average: 92.1%
[7]; 0 h
  % Remaining of TA (n = 3) Average: 100%
[8]; 0 h
  % Remaining of TA (n = 3) Average: 100%
[8]; 5 min
  % Remaining of TA (n = 3) Average: 102%
[8]; 10 min
  % Remaining of TA (n = 3) Average: 96.9%
[8]; 20 min
  % Remaining of TA (n = 3) Average: 92.8%
[8]; 0.5 h
  % Remaining of TA (n = 3) Average: 95.0%
[8]; 1 h
  % Remaining of TA (n = 3) Average: 95.3%
[9]; 0 h
  % Remaining of TA (n = 3) Average: 100%
[9]; 5 min
  % Remaining of TA (n = 3) Average: 101%
[9]; 10 min
  % Remaining of TA (n = 3) Average: 110%
[9]; 20 min
  % Remaining of TA (n = 3) Average: 99.7%
[9]; 0.5 h
  % Remaining of TA (n = 3) Average: 101%
[9]; 1 h
  % Remaining of TA (n = 3) Average: 87.2%
[10]; 0 h
  % Remaining of TA (n = 3) Average: 100%
[10]; 5 min
  % Remaining of TA (n = 3) Average: 123%
[10]; 10 min
  % Remaining of TA (n = 3) Average: 123%
[10]; 20 min
  % Remaining of TA (n = 3) Average: 121%
[10]; 0.5 h
  % Remaining of TA (n = 3) Average: 120%
[10]; 1 h
  % Remaining of TA (n = 3) Average: 128%
[11]
  recovery: > 80%
[12]; [18]
  solubility: ≥ 8.01 mM
[12]; [19]
  solubility: ≥ 0.81 mM
[13]
  IC50: 0.0387 to 0.116 mM

## O=C(O)CCCc1ccccc1 [PB, sodium phenylbutyrate]
[1]
  IC50: 7.16 to 21.5 mM
[2]
  recovery at 5 min: > 90%
[3]
  IC50: > 73.9 mM
[4]
  fraction unbound: 0.179
[5]; Table 28
  estimated [I]2: 64447 µM
  projected unbound Cmax: 148 µM
[5]
  Plasma Cmax (total [I]1): 826 µM
  [I]2: 64447 µM
  Unbound Cmax (Unbound [I]1): 148 µM
  Unbound [I]in, max: 326 µM
[5]; human
  projected unbound Iin,max: 326 µM
  unbound [I]1: 148 µM
[6]; [14]
  % Remaining of TA (n = 3) Average: 100%
[6]; [15]
  % Remaining of TA (n = 3) Average: 101%
[6]; [16]
  % Remaining of TA (n = 3) Average: 101%
[6]; human, microsomes, 0.5 h, 5 μM, pH 7.4
  % Remaining of TA (n = 3) Average: 101%
[6]; [17]
  % Remaining of TA (n = 3) Average: 101%
[7]; 5 min
  % Remaining of TA (n = 3) Average: 109%
[7]; 20 min
  % Remaining of TA (n = 3) Average: 113%
[8]; 0 h
  % Remaining of TA (n = 3) Average: 100%
[8]; 5 min
  % Remaining of TA (n = 3) Average: 103%
[8]; 20 min
  % Remaining of TA (n = 3) Average: 98.5%
[8]; 0.5 h
  % Remaining of TA (n = 3) Average: 99.6%
[8]; 1 h
  % Remaining of TA (n = 3) Average: 97.6%
[9]; 0 h
  % Remaining of TA (n = 3) Average: 100%
[9]; 20 min
  % Remaining of TA (n = 3) Average: 97.5%
[9]; 1 h
  % Remaining of TA (n = 3) Average: 98.8%
[10]; 0 h
  % Remaining of TA (n = 3) Average: 100%
[10]; 5 min
  % Remaining of TA (n = 3) Average: 116%
[10]; 10 min
  % Remaining of TA (n = 3) Average: 131%
[10]; 20 min
  % Remaining of TA (n = 3) Average: 125%
[10]; 0.5 h
  % Remaining of TA (n = 3) Average: 127%
[10]; 1 h
  % Remaining of TA (n = 3) Average: 128%
[11]
  recovery: > 80%
[12]; [18]
  solubility: ≥ 64.4 mM
[12]; [19]
  solubility: ≥ 73.9 mM
[12]; HBSSg_7.4
  Measured Concentration: 52000 µM and 59300 µM and 52800 µM
[12]; HBSSg_7.4, target 8005 (TUDCA), 64447 μM (PB)
  Percent of the Nominal Concentration: 80.7% and 92.0%
[12]; HBSSg_8.5
  Measured Concentration: 62200 µM and 53200 µM and 61100 µM
[12]; HBSSg_8.5, target 810 μM (TUDCA), 73927 μM (PB)
  Percent of the Nominal Concentration: 84.1% and 72.0% and 82.6%
[13]
  IC50: 3.63 to 10.9 mM
